IC50 data for 28 compounds are collected here from patent US20230159469A1, “NOVEL PHTHALAZINE DERIVATIVE HAVING ECTONUCLOEOTIDE PYROPHOSPHATASE/PHOSPHODIESTE RASE INHIBITORY ACTIVITY, AND USE THEREOF” (TXINNO BIOSCIENCE INC., priority 2020, published 2023).

Each structure is given as a SMILES string. Counter-ions that a name gives are not always drawn.

The target of the assay is T1, human recombinant ENPP1 (Homo sapiens, UniProt P22413).
T1 construct: purchased R & D systems
T1 sequence (P22413 1-925): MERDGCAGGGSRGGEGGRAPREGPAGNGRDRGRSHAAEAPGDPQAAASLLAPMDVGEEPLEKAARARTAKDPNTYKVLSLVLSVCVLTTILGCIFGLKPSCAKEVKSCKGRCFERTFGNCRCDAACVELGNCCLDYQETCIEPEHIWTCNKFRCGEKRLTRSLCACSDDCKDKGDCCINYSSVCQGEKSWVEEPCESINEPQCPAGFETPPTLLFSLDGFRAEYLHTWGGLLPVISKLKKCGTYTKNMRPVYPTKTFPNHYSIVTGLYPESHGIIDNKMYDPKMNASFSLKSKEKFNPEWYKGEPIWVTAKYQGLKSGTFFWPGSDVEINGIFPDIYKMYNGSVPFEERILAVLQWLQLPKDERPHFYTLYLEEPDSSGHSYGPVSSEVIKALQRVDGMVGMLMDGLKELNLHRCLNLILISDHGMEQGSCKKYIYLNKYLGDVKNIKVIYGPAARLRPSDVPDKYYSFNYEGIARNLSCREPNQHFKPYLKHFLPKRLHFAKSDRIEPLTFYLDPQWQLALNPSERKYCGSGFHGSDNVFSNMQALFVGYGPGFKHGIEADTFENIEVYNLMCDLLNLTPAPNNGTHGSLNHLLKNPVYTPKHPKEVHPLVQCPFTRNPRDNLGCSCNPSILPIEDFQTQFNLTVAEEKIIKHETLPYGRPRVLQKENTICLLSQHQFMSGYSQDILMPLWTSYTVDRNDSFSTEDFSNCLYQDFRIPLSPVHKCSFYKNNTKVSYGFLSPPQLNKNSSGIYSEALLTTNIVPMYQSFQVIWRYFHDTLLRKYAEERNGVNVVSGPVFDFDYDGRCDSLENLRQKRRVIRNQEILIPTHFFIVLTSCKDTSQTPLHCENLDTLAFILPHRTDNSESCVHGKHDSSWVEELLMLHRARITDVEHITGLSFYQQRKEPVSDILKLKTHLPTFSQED
The assay can be described thus: ENPP1 enzyme assay with cGAMP substrate (AMP-Glo luminescence). The assay is classed as biochemical. Particulars: human recombinant ENPP1 3 ng/reaction, cGAMP 5 μM, 37° C. 90 minutes, read-out: Enzymatic activity (ENPP1 IC50). In short, it runs like this: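 Human ENPP1 hydrolysis of 5 μM cGAMP was run for 90 min at 37° C in 50 mM Tris pH 8.5, 250 mM NaCl, 0.5 mM CaCl2, 1 μM ZnCl2, 5% glycerol, 1% DMSO. AMP product was quantified by AMP-Glo luminescence; IC50 came from 3-parameter fits of % residual activity, averaged over at least two runs.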
For the compound `COc1cc2c(Cc3cccc(NC(=O)OC(C)(C)C)c3)nn(C)c(=O)c2cc1OC` [Compound No. 146, tert-butyl (3-((6,7-dimethoxy-3-methyl-4-oxo-3,4-dihydrophthalazin-1-yl)methyl)phenyl)carbamate], the IC50 (usually the concentration needed to halve the response being measured) was over 10 µM.
With `CC(C)(C)OC(=O)Nc1ccc(Cc2n[nH]c(=O)c3ccccc23)cc1` [Compound No. 147, tert-butyl (4-((4-oxo-3,4-dihydrophthalazin-1-yl)methyl)phenyl)carbamate], the IC50 is over 10 µM.
For the compound `Cn1nc(Cc2ccc(NC(=O)OC(C)(C)C)cc2)c2ccccc2c1=O` [Compound No. 148, tert-butyl (4-((3-methyl-4-oxo-3,4-dihydrophthalazin-1-yl)methyl)phenyl)carbamate], the IC50 is over 10 µM.
Under `COc1cc2c(Cc3ccc(NC(=O)OC(C)(C)C)cc3)n[nH]c(=O)c2cc1OC` [Compound No. 149, tert-butyl (4-((6,7-dimethoxy-4-oxo-3,4-dihydrophthalazin-1-yl)methyl)phenyl)carbamate] stands over 10 µM; under `COc1cc2c(Cc3ccc(NC(=O)OC(C)(C)C)cc3)nn(C)c(=O)c2cc1OC` [Compound No. 150, tert-butyl (4-((6,7-dimethoxy-3-methyl-4-oxo-3,4-dihydrophthalazin-1-yl)methyl)phenyl)carbamate], over 10 µM; under `CN(C(=O)OC(C)(C)C)c1ccc(Cc2n[nH]c(=O)c3ccccc23)cc1` [Compound No. 151, tert-butyl (4-((4-oxo-3,4-dihydrophthalazin-1-yl)methyl)phenyl) (methyl)carbamate], over 10 µM.
In the case of `COc1cc2c(Cc3ccc(N(C)C(=O)OC(C)(C)C)cc3)n[nH]c(=O)c2cc1OC` [Example 152, tert-butyl (4-((6,7-dimethoxy-4-oxo-3,4-dihydrophthalazin-1-yl)methyl)phenyl) (methyl) carbamate], the IC50 is over 10 µM.
In the case of `COc1cc2c(Cc3ccc4c(c3)CCN4C(=O)OC(C)(C)C)nn(C)c(=O)c2cc1OC` [Example 155], the IC50 was over 10 µM.
Take `COc1cc2c(Cc3cccc(N)c3)n[nH]c(=O)c2cc1OC` [Example 156, 4-(3-aminobenzyl)-6,7-dimethoxyphthalazin-1(2H)-one hydrochloride]: the 50% inhibitory concentration (IC50) is over 10 µM.
On to `COc1cc2c(Cc3cccc(N)c3)nn(C)c(=O)c2cc1OC` [Example 157, 4-(3-aminobenzyl)-6,7-dimethoxy-2-methylphthalazin-1(2H)-one hydrochloride], for which the IC50 is over 10 µM.
Next, `Nc1ccc(Cc2n[nH]c(=O)c3ccccc23)cc1` [Example 158, 4-(4-aminobenzyl)-phthalazin-1(2H)-one hydrochloride]: over 10 µM; `Cn1nc(Cc2ccc(N)cc2)c2ccccc2c1=O` [Example 159, 4-(4-aminobenzyl)-2-methylphthalazin-1(2H)-one hydrochloride]: over 10 µM; `COc1cc2c(Cc3ccc(N)cc3)n[nH]c(=O)c2cc1OC` [Example 160, 4-(4-aminobenzyl)-6,7-dimethoxyphthalazin-1(2H)-one hydrochloride]: over 10 µM.
Under `COc1cc2c(Cc3ccc(N)cc3)nn(C)c(=O)c2cc1OC` [Example 161, 4-(4-aminobenzyl)-6,7-dimethoxy-2-methylphthalazin-1(2H)-one hydrochloride] stands over 10 µM; under `CNc1ccc(Cc2n[nH]c(=O)c3ccccc23)cc1` [Example 162, 4-(4-(methylamino)benzyl)phthalazin-1(2H)-one hydrochloride], over 10 µM; under `CNc1ccc(Cc2n[nH]c(=O)c3cc(OC)c(OC)cc23)cc1` [Example 163, 6,7-dimethoxy-4-(4-(methylamino)benzyl)phthalazin-1(2H) -one hydrochloride], over 10 µM.
With `CNc1ccc(Cc2nn(C)c(=O)c3cc(OC)c(OC)cc23)cc1` [Example 164, 6,7-dimethoxy-2-methyl-4-(4-(methylamino)benzyl)phthalazin-1(2H)-one hydrochloride], the IC50 is over 10 µM.
Next, `COc1cc2c(Cc3ccc4c(c3)CCN4)n[nH]c(=O)c2cc1OC` [Example 165, 4-(indolin-5-yl-methyl)-6,7-dimethoxyphthalazin-1(2H)-one hydrochloride]: over 10 µM; `COc1cc2c(Cc3ccc4c(c3)CCN4)nn(C)c(=O)c2cc1OC` [Example 166, 4-(indolin-5-yl-methyl)-6,7-dimethoxy-2-methylphthalazin-1(2H)-one hydrochloride]: over 10 µM.
Under `COc1cc2c(Cc3cccc(NS(=O)(=O)NC(=O)OC(C)(C)C)c3)n[nH]c(=O)c2cc1OC` [Example 167, tert-butyl (N-(3-((6,7-dimethoxy-4-oxo-3,4-dihydrophthalazin-1-yl)methyl)phenyl)sulfamoyl)carbamate] stands over 10 µM.
Next, `COc1cc2c(Cc3cccc(NS(=O)(=O)NC(=O)OC(C)(C)C)c3)nn(C)c(=O)c2cc1OC` [Example 168, tert-butyl (N-(3-((6,7-dimethoxy-3-methyl-4-oxo-3,4-dihydrophthalazin-1-yl)methyl)phenyl)sulfamoyl)carbamate]: over 10 µM.
For `CC(C)(C)OC(=O)NS(=O)(=O)Nc1ccc(Cc2n[nH]c(=O)c3ccccc23)cc1` [Example 169, tert-butyl (N-(4-((4-oxo-3,4-dihydrophthalazin-1-yl)methyl)phenyl)sulfamoyl)carbamate], the IC50 fell in the range of 1 to 10 µM.
`Cn1nc(Cc2ccc(NS(=O)(=O)NC(=O)OC(C)(C)C)cc2)c2ccccc2c1=O` [Example 170, tert-butyl (N-(4-((3-methyl-4-oxo-3,4-dihydrophthalazin-1-yl)methyl)phenyl)sulfamoyl)carbamate]: the IC50 was over 10 µM.
Regarding `COc1cc2c(Cc3ccc(NS(=O)(=O)NC(=O)OC(C)(C)C)cc3)n[nH]c(=O)c2cc1OC` [Example 171, tert-butyl (N-(4-((6,7-dimethoxy-4-oxo-3,4-dihydrophthalazin-1-yl)methyl)phenyl)sulfamoyl)carbamate], the 50% inhibitory concentration (IC50) is over 10 µM.
For the compound `COc1cc2c(Cc3ccc(NS(=O)(=O)NC(=O)OC(C)(C)C)cc3)nn(C)c(=O)c2cc1OC` [Example 172, tert-butyl (N-(4-((6,7-dimethoxy-3-methyl-4-oxo-3,4-dihydrophthalazin-1-yl)methyl)phenyl)sulfamoyl)carbamate], the concentration for half-maximal inhibition (IC50) lay within 1 to 10 µM.
As for `CN(c1ccc(Cc2n[nH]c(=O)c3ccccc23)cc1)S(=O)(=O)NC(=O)OC(C)(C)C` [Example 173, tert-butyl N-methyl-N-(4-((4-oxo-3,4-dihydrophthalazin-1-yl)methyl)phenyl)sulfamoyl carbamate], the IC50 was over 10 µM.
For `COc1cc2c(Cc3ccc(N(C)S(=O)(=O)NC(=O)OC(C)(C)C)cc3)n[nH]c(=O)c2cc1OC` [Example 174, tert-butyl N-(4-((6,7-dimethoxy-4-oxo-3,4-dihydrophthalazin-1-yl)methyl)phenyl)-N-methylsulfamoyl carbamate], the IC50 is over 10 µM.
Next, `COc1cc2c(Cc3ccc4c(c3)CCN4S(=O)(=O)NC(=O)OC(C)(C)C)n[nH]c(=O)c2cc1OC` [Example 176, tert-butyl (5-((6,7-dimethoxy-4-oxo-3,4-dihydrophthalazin-1-yl)methyl)indolin-1-yl)sulfonyl carbamate]: over 10 µM.
